Measurements taken from patent US10221178B2, “Purine inhibitors of human phosphatidylinositol 3-kinase delta” (MERCK SHARP & DOHME CORP., priority 2015, dated 2019).

Columns and labels:
PI3Kdelta = PI3Kdelta (Homo sapiens (Human), UniProt O00329); experiment: HTRF PI3K biochemical assay, delta isoform; settings: 0.3 nM enzyme, 100 uM ATP, 5 uM PIP2, form screened: Neutral
Procedure, shortened: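 0.3 nM PI3Kδ, pre-incubated 15 min at RT with compound (10-point 3-fold series), then reacted 1 h at RT with 100 uM ATP and 5 uM PIP2. After EDTA stop, PIP3 product detected by HTRF competition (GST-GRP1-PH, biotin-PIP3, Eu anti-GST, SA-APC), read 665/620 nm after 1 h.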

PI3Kalpha = PI3Kalpha (Homo sapiens (Human), UniProt P42336); experiment: HTRF PI3K biochemical assay, alpha isoform (selectivity versus PI3Kalpha); settings: relative ratio (PI3K-alpha IC50 value/PI3K-delta IC50 value); form screened: Neutral
Chain of PI3Kalpha (P42336 whole entry, the tested form may be a part, canonical isoform): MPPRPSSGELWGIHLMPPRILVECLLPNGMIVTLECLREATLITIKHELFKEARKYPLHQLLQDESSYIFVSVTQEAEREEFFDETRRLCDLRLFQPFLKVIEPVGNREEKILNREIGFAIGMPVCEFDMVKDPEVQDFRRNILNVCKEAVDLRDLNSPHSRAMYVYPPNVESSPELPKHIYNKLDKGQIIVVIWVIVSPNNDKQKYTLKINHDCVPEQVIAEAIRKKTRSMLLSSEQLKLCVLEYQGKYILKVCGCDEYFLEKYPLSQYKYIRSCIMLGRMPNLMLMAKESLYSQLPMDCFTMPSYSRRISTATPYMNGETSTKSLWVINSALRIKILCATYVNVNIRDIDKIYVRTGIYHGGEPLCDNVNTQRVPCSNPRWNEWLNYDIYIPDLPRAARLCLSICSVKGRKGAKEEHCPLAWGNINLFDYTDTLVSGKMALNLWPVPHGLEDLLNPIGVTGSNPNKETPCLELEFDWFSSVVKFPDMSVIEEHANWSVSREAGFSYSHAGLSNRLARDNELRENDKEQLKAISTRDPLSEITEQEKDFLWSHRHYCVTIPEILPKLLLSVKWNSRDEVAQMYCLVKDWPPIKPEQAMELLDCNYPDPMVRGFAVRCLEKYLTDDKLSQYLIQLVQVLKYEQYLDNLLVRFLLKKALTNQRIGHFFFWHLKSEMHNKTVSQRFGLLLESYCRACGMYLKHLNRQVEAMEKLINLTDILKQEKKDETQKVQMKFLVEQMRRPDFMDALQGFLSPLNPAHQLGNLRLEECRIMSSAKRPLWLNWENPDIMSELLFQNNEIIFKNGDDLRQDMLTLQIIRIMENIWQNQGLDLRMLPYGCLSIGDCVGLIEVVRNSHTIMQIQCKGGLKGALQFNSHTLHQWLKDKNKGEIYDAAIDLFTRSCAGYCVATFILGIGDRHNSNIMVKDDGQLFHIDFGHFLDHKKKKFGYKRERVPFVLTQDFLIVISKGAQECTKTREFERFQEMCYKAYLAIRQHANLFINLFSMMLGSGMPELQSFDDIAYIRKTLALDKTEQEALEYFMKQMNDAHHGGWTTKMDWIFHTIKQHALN
Chain of PI3Kalpha (P27986 whole entry partner, the tested form may be a part, canonical isoform): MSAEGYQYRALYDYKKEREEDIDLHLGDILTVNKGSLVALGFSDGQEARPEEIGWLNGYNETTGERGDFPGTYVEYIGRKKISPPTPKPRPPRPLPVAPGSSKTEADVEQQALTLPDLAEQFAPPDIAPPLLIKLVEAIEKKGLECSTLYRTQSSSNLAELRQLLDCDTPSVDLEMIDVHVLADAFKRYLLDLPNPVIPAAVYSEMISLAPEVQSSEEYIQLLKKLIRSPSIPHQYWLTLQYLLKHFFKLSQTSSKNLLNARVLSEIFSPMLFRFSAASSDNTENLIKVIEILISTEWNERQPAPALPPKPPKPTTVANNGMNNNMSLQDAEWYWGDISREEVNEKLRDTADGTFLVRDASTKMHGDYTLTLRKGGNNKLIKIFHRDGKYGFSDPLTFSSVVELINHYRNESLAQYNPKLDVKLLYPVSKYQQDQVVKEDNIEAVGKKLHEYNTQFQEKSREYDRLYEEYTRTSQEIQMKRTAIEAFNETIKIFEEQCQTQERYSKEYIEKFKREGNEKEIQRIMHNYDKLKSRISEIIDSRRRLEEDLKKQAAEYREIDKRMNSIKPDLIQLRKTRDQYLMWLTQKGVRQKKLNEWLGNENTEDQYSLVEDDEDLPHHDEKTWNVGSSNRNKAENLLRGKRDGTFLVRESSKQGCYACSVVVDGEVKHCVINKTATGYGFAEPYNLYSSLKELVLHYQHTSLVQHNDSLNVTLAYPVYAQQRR
Procedure, shortened: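 Uses recombinant PI3Kalpha at 0.5 nM with 100 uM ATP and 5 uM PIP2, after a 15 min RT compound pre-incubation and a 1 h RT reaction. PIP3 product displaces biotin-PIP3 from GST-GRP1 PH domain, read as HTRF 665/620 ratio. IC50 from a 10-point dose response, corrected via a PIP3 standard curve.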

Chain of PI3Kdelta (O00329 whole entry, canonical isoform): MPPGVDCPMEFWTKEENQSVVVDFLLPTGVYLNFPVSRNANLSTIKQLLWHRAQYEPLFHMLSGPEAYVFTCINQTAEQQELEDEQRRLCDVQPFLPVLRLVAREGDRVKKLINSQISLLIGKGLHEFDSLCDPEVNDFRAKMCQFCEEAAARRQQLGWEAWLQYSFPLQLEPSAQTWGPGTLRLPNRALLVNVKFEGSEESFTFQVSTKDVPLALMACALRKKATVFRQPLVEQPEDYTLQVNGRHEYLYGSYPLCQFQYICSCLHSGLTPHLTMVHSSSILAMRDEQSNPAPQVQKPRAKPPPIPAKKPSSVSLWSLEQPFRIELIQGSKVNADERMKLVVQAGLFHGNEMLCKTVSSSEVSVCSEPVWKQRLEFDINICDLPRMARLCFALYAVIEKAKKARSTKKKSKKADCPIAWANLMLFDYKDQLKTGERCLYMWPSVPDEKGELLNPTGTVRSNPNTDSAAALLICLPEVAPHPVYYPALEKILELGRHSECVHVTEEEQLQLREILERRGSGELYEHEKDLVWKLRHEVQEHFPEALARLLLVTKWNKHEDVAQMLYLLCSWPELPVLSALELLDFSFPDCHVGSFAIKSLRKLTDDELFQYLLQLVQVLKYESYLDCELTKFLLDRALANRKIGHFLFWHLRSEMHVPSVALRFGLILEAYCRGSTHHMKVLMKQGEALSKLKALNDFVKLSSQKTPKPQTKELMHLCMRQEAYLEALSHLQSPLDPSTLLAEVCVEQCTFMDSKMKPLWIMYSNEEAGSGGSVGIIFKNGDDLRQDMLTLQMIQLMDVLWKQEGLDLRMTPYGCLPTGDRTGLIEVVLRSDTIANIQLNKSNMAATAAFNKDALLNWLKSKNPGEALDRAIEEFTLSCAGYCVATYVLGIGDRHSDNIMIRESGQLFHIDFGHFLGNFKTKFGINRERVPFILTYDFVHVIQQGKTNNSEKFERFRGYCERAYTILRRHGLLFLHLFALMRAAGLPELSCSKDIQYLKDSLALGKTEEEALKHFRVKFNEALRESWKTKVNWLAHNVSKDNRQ
Chain of PI3Kdelta (P27986 whole entry partner, canonical isoform): as the sequence (P27986 whole entry partner, the tested form may be a part, canonical isoform) above

Row | Structure (SMILES) | IC50 (PI3Kdelta) | Selectivity versus PI3Kalpha (PI3Kalpha)
1 | CCn1c(-c2cnc(C)nc2)nc2c(N[C@H](C(=O)N3C[C@@H](C)O[C@@H](C)C3)C(C)(C)C)ncnc21 [Compound 2-42, N-[(1S)-1-{[(cis)-2,6-dimethylmorpholin-4-yl]carbonyl}-2,2-dimethylpropyl]-9-ethyl-8-(2-methylpyrimidin-5-yl)-9H-purin-6-amine] | 5.3 nM | >10
2 | CCn1c(-c2cnc(C)nc2)nc2c(N[C@H](C(=O)N3C[C@@H](C)O[C@@H](C)C3)c3ccccc3)ncnc21 [Compound 2-43, N-{(1S)-2-[(cis)-2,6-dimethylmorpholin-4-yl]-2-oxo-1-phenylethyl}-9-ethyl-8-(2-methylpyrimidin-5-yl)-9H-purin-6-amine] | 87 nM | >10
3 | CCn1c(-c2cnc(C)nc2)nc2c(N[C@@H](CC(C)C)C(=O)N3C[C@@H](C)O[C@@H](C)C3)ncnc21 [Compound 2-44, N-[(1S)-1-{[(cis)-2,6-dimethylmorpholin-4-yl]carbonyl}-3-methylbutyl]-9-ethyl-8-(2-methylpyrimidin-5-yl)-9H-purin-6-amine] | 140 nM | >10
4 | CCC[C@H](Nc1ncnc2c1nc(-c1cnc(C)nc1)n2CC)C(=O)N1C[C@@H](C)O[C@@H](C)C1 [Compound 2-45, N-[(1S)-1-{[(cis)-2,6-dimethylmorpholin-4-yl]carbonyl}butyl]-9-ethyl-8-(2-methylpyrimidin-5-yl)-9H-purin-6-amine] | 26 nM | >10
5 | CCn1c(-c2cnc(C)nc2)nc2c(N[C@@H](COC)C(=O)N3C[C@@H](C)O[C@@H](C)C3)ncnc21 [Compound 2-46, N-[(1S)-2-[(cis)-2,6-dimethylmorpholin-4-yl]-1-(methoxymethyl)-2-oxoethyl]-9-ethyl-8-(2-methylpyrimidin-5-yl)-9H-purin-6-amine] | 27 nM | >10
6 | CCn1c(-c2cnc(C)nc2)nc2c(N[C@@H](CO)C(=O)N3C[C@@H](C)O[C@@H](C)C3)ncnc21 [Compound 2-47, (2S)-3-[(cis)-2,6-dimethylmorpholin-4-yl]-2-{[9-ethyl-8-(2-methylpyrimidin-5-yl)-9H-purin-6-yl]amino}-3-oxopropan-1-ol] | 12 nM | >10
7 | CCn1c(-c2cnc(C)nc2)nc2c(N[C@H](C(=O)N3C[C@@H](C)O[C@@H](C)C3)C3CCCC3)ncnc21 [Compound 2-48, N-{(1S)-1-cyclopentyl-2-[(cis)-2,6-dimethylmorpholin-4-yl]-2-oxoethyl}-9-ethyl-8-(2-methylpyrimidin-5-yl)-9H-purin-6-amine] | 55 nM | >10
8 | CCn1c(-c2cnc(C)nc2)nc2c(N[C@H](C(=O)N3C[C@@H](C)O[C@@H](C)C3)C(C)C)ncnc21 [Compound 2-49, N-[(1S)-1-{[(cis)-2,6-dimethylmorpholin-4-yl]carbonyl}-2-methylpropyl]-9-ethyl-8-(2-methylpyrimidin-5-yl)-9H-purin-6-amine] | 4.1 nM | >10
9 | CCn1c(-c2cnc(C)nc2)nc2c(N[C@H](C(=O)N3C[C@@H](C)O[C@@H](C)C3)C(C)(C)O)ncnc21 [Compound 2-50, (3S)-4-[(cis)-2,6-dimethylmorpholin-4-yl]-3-{[9-ethyl-8-(2-methylpyrimidin-5-yl)-9H-purin-6-yl]amino}-2-methyl-4-oxobutan-2-ol] | 8.7 nM | >10
10 | CCn1c(-c2cnc(C)nc2)nc2c(N[C@@H](CN(C)C)C(=O)N3C[C@@H](C)O[C@@H](C)C3)ncnc21 [Compound 2-51, (2S)-3-[(cis)-2,6-dimethylmorpholin-4-yl]-N-2-[9-ethyl-8-(2-methylpyrimidin-5-yl)-9H-purin-6-yl]-N-1-,N-1-dimethyl-3-oxopropane-1,2-diamine] | 420 nM | >10
11 | CCn1c(-c2cnc(C)nc2)nc2c(N[C@H](C(=O)N3C[C@@H](C)O[C@@H](C)C3)[C@@H](C)OC)ncnc21 [Compound 2-52, N-[(1S,2R)-1-{[(cis)-2,6-dimethylmorpholin-4-yl]carbonyl}-2-methoxypropyl]-9-ethyl-8-(2-methylpyrimidin-5-yl)-9H-purin-6-amine] | 3.7 nM | >10
12 | CCn1c(-c2cnc(C)nc2)nc2c(N[C@@H](C)CC(=O)N3C[C@@H](C)O[C@@H](C)C3)ncnc21 [Compound 2-53, N-{(1S)-3-[(cis)-2,6-dimethylmorpholin-4-yl]-1-methyl-3-oxopropyl}-9-ethyl-8-(2-methylpyrimidin-5-yl)-9H-purin-6-amine] | 37 nM | >10
13 | CCn1c(-c2cnc(C)nc2)nc2c(NC[C@H](C)C(=O)N3C[C@@H](C)O[C@@H](C)C3)ncnc21 [Compound 2-54, N-{(2S)-3-[(cis)-2,6-dimethylmorpholin-4-yl]-2-methyl-3-oxopropyl}-9-ethyl-8-(2-methylpyrimidin-5-yl)-9H-purin-6-amine] | 250 nM | >10
14 | CCn1c(-c2cnc(C)nc2)nc2c(NC[C@@H](C)C(=O)N3C[C@@H](C)O[C@@H](C)C3)ncnc21 [Compound 2-55, N-{(2R)-3-[(cis)-2,6-dimethylmorpholin-4-yl]-2-methyl-3-oxopropyl}-9-ethyl-8-(2-methylpyrimidin-5-yl)-9H-purin-6-amine] | 20 nM | >10
15 | CCn1c(-c2cnc(C)nc2)nc2c(N[C@H](CC(=O)N3C[C@@H](C)O[C@@H](C)C3)c3ccccc3)ncnc21 [Compound 2-56, N-{(1R)-3-[(cis)-2,6-dimethylmorpholin-4-yl]-3-oxo-1-phenylpropyl}-9-ethyl-8-(2-methylpyrimidin-5-yl)-9H-purin-6-amine] | 610 nM | >10
16 | CCn1c(-c2cnc(C)nc2)nc2c(NCC3(C(=O)N4C[C@@H](C)O[C@@H](C)C4)CC3)ncnc21 [Compound 2-57, N-[(1-{[(cis)-2,6-dimethylmorpholin-4-yl]carbonyl}cyclopropyl)methyl]-9-ethyl-8-(2-methylpyrimidin-5-yl)-9H-purin-6-amine] | 24 nM | >10
17 | CCn1c(-c2cnc(C)nc2)nc2c(N[C@H](CC(=O)N3C[C@@H](C)O[C@@H](C)C3)C(C)C)ncnc21 [Compound 2-58, N-[(1R)-3-[(cis)-2,6-dimethylmorpholin-4-yl]-1-(1-methylethyl)-3-oxopropyl]-9-ethyl-8-(2-methylpyrimidin-5-yl)-9H-purin-6-amine] | 290 nM | >10

Next, values leading:

Row | IC50 (PI3Kdelta) | Selectivity versus PI3Kalpha (PI3Kalpha) | Structure (SMILES)
18 | 63 nM | >10 | CCn1c(-c2cnc(C)nc2)nc2c(N[C@@H](C)CC(=O)N3CCCC3)ncnc21 [Compound 2-59, 9-ethyl-N-[(1S)-1-methyl-3-oxo-3-pyrrolidin-1-ylpropyl]-8-(2-methylpyrimidin-5-yl)-9H-purin-6-amine]
19 | 29 nM | >10 | CCn1c(-c2cnc(C)nc2)nc2c(NC[C@@H](C)C(=O)N3CCCC3)ncnc21 [Compound 2-60, 9-ethyl-N-[(2R)-2-methyl-3-oxo-3-pyrrolidin-1-ylpropyl]-8-(2-methylpyrimidin-5-yl)-9H-purin-6-amine]
20 | 93 nM | >10 | CCn1c(-c2cnc(C)nc2)nc2c(NCC3(C(=O)N4CCCC4)CC3)ncnc21 [Compound 2-61, 9-ethyl-8-(2-methylpyrimidin-5-yl)-N-{[1-(pyrrolidin-1-ylcarbonyl)cyclopropyl]methyl}-9H-purin-6-amine]
21 | 100 nM | >10 | CCn1c(-c2cnc(C)nc2)nc2c(N[C@H](CC(=O)N3CCCC3)C(C)C)ncnc21 [Compound 2-62, 9-ethyl-N-[(1R)-1-(1-methylethyl)-3-oxo-3-pyrrolidin-1-ylpropyl]-8-(2-methylpyrimidin-5-yl)-9H-purin-6-amine]
22 | 17 nM | >10 | CC[C@H](Nc1ccnc2c1nc(-c1cnc(C)nc1)n2CC)C(=O)N1C[C@@H](C)O[C@@H](C)C1 [Compound 3-1, N-[(1S)-1-{[(cis)-2,6-dimethylmorpholin-4-yl]carbonyl}propyl]-3-ethyl-2-(2-methylpyrimidin-5-yl)-3H-imidazo[4,5-b]pyridin-7-amine]
23 | 6.2 nM | >10 | CC[C@H](Nc1ccnc2c1nc(-c1ccc(C(F)(F)F)nc1)n2CC)C(=O)N1C[C@@H](C)O[C@@H](C)C1 [Compound 3-2, N-[(1S)-1-{[(cis)-2,6-dimethylmorpholin-4-yl]carbonyl}propyl]-3-ethyl-2-[6-(trifluoromethyl)pyridin-3-yl]-3H-imidazo[4,5-b]pyridin-7-amine]
24 | 8.6 nM | >10 | CCn1c(-c2cnc(C)nc2)nc2c(N[C@H](C(=O)N3C[C@@H](C)O[C@@H](C)C3)[C@@H](C)OC)ccnc21 [Compound 3-3, N-[(1S,2R)-1-{[(cis)-2,6-dimethylmorpholin-4-yl]carbonyl}-2-methoxypropyl]-3-ethyl-2-(2-methylpyrimidin-5-yl)-3H-imidazo[4,5-b]pyridin-7-amine]
25 | 21 nM | >10 | CC[C@H](Nc1ncnc2c1nc(-c1cnc(C)nc1)n2CC)C(=O)N1C[C@@H](C)N(C(C)=O)[C@@H](C)C1 [Compound 4-2, N-[(1S)-1-{[cis-4-acetyl-3,5-dimethylpiperazin-1-yl]carbonyl}propyl]-9-ethyl-8-(2-methylpyrimidin-5-yl)-9H-purin-6-amine]
